# Target: memapsin 2 (Homo sapiens, UniProt P56817)
# Assay: Inhibition of memapsin 2 beta-secretase activity (fluorogenic substrate FS-2)
# Format: biochemical
# Conditions: pH 4, 37° C., read-out: M2 Ki
# Procedure: Potency of compounds were determined by measurement of their inhibition of memapsin 2 activity toward a fluorescent substrate. Kinetic inhibition experiments were performed using the procedure as described in Ermolieff, et al. (Biochemistry 39:12450-12456 (2000), the teachings of which are incorporated hereby in their entirety). Briefly, assays were performed at pH 4, 37° C., by pre-incubation of memapsin 2 enzyme with compound for 20 minutes. Activity measurements were initiated by addition of a fluorogenic substrate FS-2 (Bachem Americas, Torrance, Calif.) MCA-SEVNLDAEFR-DNP (SEQ ID NO.: 2). The substrate was derived from 10 amino acids of the human amyloid precursor protein (APP), with the Swedish variant amino acids at the beta-secretase cleavage site. The terminal amino acid was modified from arginine to lysine to facilitate derivatization with a functional group for detection by autofluorescence. The amino acid sequence of the “core” peptide of the substrate is SEVNLDAEFK (SEQ ID NO.: 3). The amino terminus was derivatized with (7-methoxycoumarin-4-yl)acetyl (MCA), and the epsilon amine of the lysine side chain of the terminal residue (K in sequence SEVNLDAEFK (SEQ ID NO.: 3)) was derivatized with 2,4-dinitorphenyl (DNP).
# Sequence of memapsin 2 (P56817 46-501): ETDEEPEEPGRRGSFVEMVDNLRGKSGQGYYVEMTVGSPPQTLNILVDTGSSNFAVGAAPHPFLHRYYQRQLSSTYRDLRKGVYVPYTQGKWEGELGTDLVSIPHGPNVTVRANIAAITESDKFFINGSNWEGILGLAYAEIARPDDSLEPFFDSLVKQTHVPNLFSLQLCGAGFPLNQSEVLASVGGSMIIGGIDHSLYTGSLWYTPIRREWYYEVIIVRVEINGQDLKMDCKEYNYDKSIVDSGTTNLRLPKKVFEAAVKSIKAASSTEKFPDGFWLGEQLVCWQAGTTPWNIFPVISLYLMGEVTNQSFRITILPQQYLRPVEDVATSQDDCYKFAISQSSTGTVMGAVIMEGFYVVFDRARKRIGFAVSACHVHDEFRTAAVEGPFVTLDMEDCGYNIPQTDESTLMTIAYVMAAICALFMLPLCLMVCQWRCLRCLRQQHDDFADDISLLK
row,Ki,SMILES
1,> 750 nM,"Cc1coc([C@H]2CCCN2C(=O)c2cccc(C(=O)N[C@@H](Cc3ccccc3)[C@H](O)[C@H]3CCCN3C(=O)OC(C)(C)C)c2)n1 [1-3, (R)-tert-butyl 2-((1S,2S)-1-hydroxy-2-(3-((R)-2-(4-methyloxazol-2-yl)pyrrolidine-1-carbonyl)benzamido)-3-phenylpropyl)pyrrolidine-1-carboxylate]"
2,> 750 nM,"Cc1csc([C@H]2CCCN2C(=O)c2cccc(C(=O)N[C@@H](Cc3ccccc3)[C@H](O)[C@H]3CC[C@@H](c4ccccc4)N3)c2)n1 [1-29, N-((1R,2S)-1-hydroxy-3-phenyl-1-((2R,5S)-5-phenylpyrrolidin-2-yl)propan-2-yl)-3-((R)-2-(4-methylthiazol-2-yl)pyrrolidine-1-carbonyl)benzamide]"
3,< 250 nM,"Cc1csc(CN(C)C(=O)c2cc(C(=O)N[C@@H](Cc3ccccc3)[C@H](O)[C@H]3CCCN3)cc(-c3ccc(F)cc3F)c2)n1 [1-30, 2′,4′-difluoro-N3-((1R,2S)-1-hydroxy-3-phenyl-1-((R)-pyrrolidin-2-yl)propan-2-yl)-N5-methyl-N5-((4-methylthiazol-2-yl)methyl)biphenyl-3,5-dicarboxamide]"
4,> 750 nM,"Cc1csc([C@H]2CCCN2C(=O)c2cccc(C(=O)N[C@@H](Cc3ccccc3)[C@H](O)[C@@H]3CC[C@H](c4ccccc4)N3)c2)n1 [1-31, N-((1R,2S)-1-hydroxy-3-phenyl-1-((2S,5R)-5-phenylpyrrolidin-2-yl)propan-2-yl)-3-((R)-2-(4-methylthiazol-2-yl)pyrrolidine-1-carbonyl)benzamide]"
5,< 250 nM,"Cc1csc([C@H]2CCCN2C(=O)c2cc(C(=O)N[C@@H](Cc3ccccc3)[C@H](O)[C@H]3C[C@H](F)CN3)cc(-c3ncco3)c2)n1 [1-38, N-((1R,2S)-1-((2R,4S)-4-fluoropyrrolidin-2-yl)-1-hydroxy-3-phenylpropan-2-yl)-3-((R)-2-(4-methylthiazol-2-yl)pyrrolidine-1-carbonyl)-5-(oxazol-2-yl)benzamide]"
6,250 to 750 nM,"Cc1csc(CN(C)C(=O)c2cccc(C(=O)N[C@@H](Cc3cccc(F)c3)[C@H](O)[C@H]3CCCN3)c2)n1 [1-54, N1-((1R,2S)-3-(3-fluorophenyl)-1-hydroxy-1-((R)-pyrrolidin-2-yl)propan-2-yl)-N3-methyl-N3-((4-methylthiazol-2-yl)methyl)isophthalamide]"
7,< 250 nM,"Cc1csc([C@H]2CCCN2C(=O)c2cc(C(=O)N[C@@H](Cc3ccccc3)[C@H](O)[C@H]3CCCN3)cc([N+](=O)[O-])c2)n1 [1-55, N-((1R,2S)-1-hydroxy-3-phenyl-1-((R)-pyrrolidin-2-yl)propan-2-yl)-3-((R)-2-(4-methylthiazol-2-yl)pyrrolidine-1-carbonyl)-5-nitrobenzamide]"
8,< 250 nM,"Cc1csc([C@H]2CCCN2C(=O)c2cc(Cl)cc(C(=O)N[C@@H](Cc3ccccc3)[C@H](O)[C@H]3CCCN3)c2)n1 [1-56, 3-chloro-N-((1R,2S)-1-hydroxy-3-phenyl-1-((R)-pyrrolidin-2-yl)propan-2-yl)-5-((R)-2-(4-methylthiazol-2-yl)pyrrolidine-1-carbonyl)benzamide]"
9,< 250 nM,"Cc1csc([C@H]2CCCN2C(=O)c2cccc(C(=O)N[C@@H](Cc3ccccc3)[C@H](O)[C@@H]3NCCC3(F)F)c2)n1 [1-57, N-((1S,2S)-1-((S)-3,3-difluoropyrrolidin-2-yl)-1-hydroxy-3-phenylpropan-2-yl)-3-((R)-2-(4-methylthiazol-2-yl)pyrrolidine-1-carbonyl)benzamide]"
10,250 to 750 nM,"Cc1csc([C@H]2CCCN2C(=O)c2cc(C(=O)N[C@@H](Cc3ccccc3)[C@H](O)[C@H]3CC[C@@H](C)N3)cc(-n3cccc3)c2)n1 [1-58, N-((1R,2S)-1-hydroxy-1-((2R,5R)-5-methylpyrrolidin-2-yl)-3-phenylpropan-2-yl)-3-((R)-2-(4-methylthiazol-2-yl)pyrrolidine-1-carbonyl)-5-(1H-pyrrol-1-yl)benzamide]"
11,< 250 nM,"Cc1csc([C@H]2CCCN2C(=O)c2cc(C(=O)N[C@@H](Cc3ccccc3)[C@H](O)[C@H]3C[C@H](F)CN3)cc(-n3cccc3)c2)n1 [1-59, N-((1R,2S)-1-((2R,4S)-4-fluoropyrrolidin-2-yl)-1-hydroxy-3-phenylpropan-2-yl)-3-((R)-2-(4-methylthiazol-2-yl)pyrrolidine-1-carbonyl)-5-(1H-pyrrol-1-yl)benzamide]"
12,> 750 nM,"Cc1csc(CN(C)C(=O)c2cccc(C(=O)N[C@@H](Cc3ccccc3)[C@H](O)[C@H]3C[C@H](F)CN3)c2)n1 [1-60, N1-((1R,2S)-1-((2R,4S)-4-fluoropyrrolidin-2-yl)-1-hydroxy-3-phenylpropan-2-yl)-N3-methyl-N3-((4-methylthiazol-2-yl)methyl)isophthalamide]"
13,250 to 750 nM,"Cc1csc([C@H]2CCCN2C(=O)c2cc(C(=O)N[C@@H](Cc3cc(F)cc(F)c3)[C@H](O)[C@H]3CCCN3)ccn2)n1 [1-61, N-((1R,2S)-3-(3,5-difluorophenyl)-1-hydroxy-1-((R)-pyrrolidin-2-yl)propan-2-yl)-2-((R)-2-(4-methylthiazol-2-yl)pyrrolidine-1-carbonyl)isonicotinamide]"
14,< 250 nM,"Cc1csc([C@H]2CCCN2C(=O)c2cc(C(=O)N[C@@H](Cc3cc(F)cc(F)c3)[C@H](O)[C@H]3CCCN3)cc(C3CC3)c2)n1 [1-62, 3-cyclopropyl-N-((1R,2S)-3-(3,5-difluorophenyl)-1-hydroxy-1-((R)-pyrrolidin-2-yl)propan-2-yl)-5-((R)-2-(4-methylthiazol-2-yl)pyrrolidine-1-carbonyl)benzamide]"
15,< 250 nM,"Cc1csc([C@H]2CCCN2C(=O)c2cc(C(=O)N[C@@H](Cc3cc(F)cc(F)c3)[C@H](O)[C@H]3CCCN3)cc(-c3cnccn3)c2)n1 [1-63, N-((1R,2S)-3-(3,5-difluorophenyl)-1-hydroxy-1-((R)-pyrrolidin-2-yl)propan-2-yl)-3-((R)-2-(4-methylthiazol-2-yl)pyrrolidine-1-carbonyl)-5-(pyrazin-2-yl)benzamide]"
16,250 to 750 nM,"Cc1csc([C@H]2CCCN2C(=O)c2cccc(C(=O)N[C@@H](Cc3ccc(F)cc3)[C@H](O)[C@H]3CCCN3)c2)n1 [1-65, N-((1R,2S)-3-(4-fluorophenyl)-1-hydroxy-1-((R)-pyrrolidin-2-yl)propan-2-yl)-3-((R)-2-(4-methylthiazol-2-yl)pyrrolidine-1-carbonyl)benzamide]"
17,> 750 nM,"Cc1csc(CN(C)C(=O)c2cccc(C(=O)N[C@@H](Cc3ccc(F)cc3)[C@H](O)[C@H]3CCCN3)c2)n1 [1-66, N1-((1R,2S)-3-(4-fluorophenyl)-1-hydroxy-1-((R)-pyrrolidin-2-yl)propan-2-yl)-N3-methyl-N3-((4-methylthiazol-2-yl)methyl)isophthalamide]"
18,> 750 nM,"Cc1csc([C@H]2CCCN2C(=O)c2cccc(C(=O)N[C@@H](Cc3ccccc3)[C@H](O)[C@H]3CCC(C)(C)N3)c2)n1 [1-67, N-((1R,2S)-1-((R)-5,5-dimethylpyrrolidin-2-yl)-1-hydroxy-3-phenylpropan-2-yl)-3-((R)-2-(4-methylthiazol-2-yl)pyrrolidine-1-carbonyl)benzamide]"
19,< 250 nM,"Cc1csc([C@H]2CCCN2C(=O)c2cc(C(=O)N[C@@H](Cc3ccccc3)[C@H](O)[C@H]3CCCN3)cc(S(C)(=O)=O)c2)n1 [1-68, N-((1R,2S)-1-hydroxy-3-phenyl-1-((R)-pyrrolidin-2-yl)propan-2-yl)-3-(methylsulfonyl)-5-((R)-2-(4-methylthiazol-2-yl)pyrrolidine-1-carbonyl)benzamide]"
20,< 250 nM,"Cc1csc([C@H]2CCCN2C(=O)c2cc(C(=O)N[C@@H](Cc3ccccc3)[C@H](O)[C@H]3CCCN3)cc(C(F)(F)F)c2)n1 [1-72, N-((1R,2S)-1-hydroxy-3-phenyl-1-((R)-pyrrolidin-2-yl)propan-2-yl)-3-((R)-2-(4-methylthiazol-2-yl)pyrrolidine-1-carbonyl)-5-(trifluoromethyl)benzamide]"
21,250 to 750 nM,"Cc1csc([C@H]2CCCN2C(=O)c2cc(C(=O)N[C@@H](Cc3ccccc3)[C@H](O)[C@H]3CCCN3)cc(-n3ccnc3)c2)n1 [1-77, N-((1R,2S)-1-hydroxy-3-phenyl-1-((R)-pyrrolidin-2-yl)propan-2-yl)-3-(1H-imidazol-1-yl)-5-((R)-2-(4-methylthiazol-2-yl)pyrrolidine-1-carbonyl)benzamide]"
22,> 750 nM,"Cc1csc([C@H]2CCCN2C(=O)c2cccc(C(=O)N[C@@H](Cc3ccccc3)[C@@H](O)[C@H]3CCCN3)c2)n1 [1-80, N-((1S,2S)-1-hydroxy-3-phenyl-1-((R)-pyrrolidin-2-yl)propan-2-yl)-3-((R)-2-(4-methylthiazol-2-yl)pyrrolidine-1-carbonyl)benzamide]"
23,< 250 nM,"CO[C@H]1CN[C@@H]([C@@H](O)[C@H](Cc2ccccc2)NC(=O)c2cc(C(=O)N3CCC[C@@H]3c3nc(C)cs3)cc(-c3ncco3)c2)C1 [1-81, N-((1R,2S)-1-hydroxy-1-((2R,4R)-4-methoxypyrrolidin-2-yl)-3-phenylpropan-2-yl)-3-((R)-2-(4-methylthiazol-2-yl)pyrrolidine-1-carbonyl)-5-(oxazol-2-yl)benzamide]"
24,< 250 nM,"CO[C@H]1CN[C@@H]([C@H](O)[C@H](Cc2ccccc2)NC(=O)c2cccc(C(=O)N3CCC[C@@H]3c3nc(C)cs3)c2)C1 [1-82, N-((1S,2S)-1-hydroxy-1-((2R,4R)-4-methoxypyrrolidin-2-yl)-3-phenylpropan-2-yl)-3-((R)-2-(4-methylthiazol-2-yl)pyrrolidine-1-carbonyl)benzamide]"
